Laboratory results published in patent US10231954B2, “Neurodegenerative therapies” (LYTIX BIOPHARMA AS, priority 2014, dated 2019).
Read-outs that look alike come from different tables or passages of the source.

How the values were obtained:
Assay type in all cases: biochemical
[1] = biological target: MAPKAP-K2 (Homo sapiens, UniProt P49137); assay: Kinase profiling MAPKAP-K2; conditions: for remaining activity at 100 µM: read-out: residual kinase activity, MAPKAP-K2
Description: (§1) Any value less that 25 is considered to be highly significant inhibition.

[2] = biological target: TTBK1 (Homo sapiens, UniProt Q5TCY1); assay: Kinase profiling TTBK1; conditions: for remaining activity at 100 µM: read-out: residual kinase activity, TTBK1
Description: as §1

[3] = biological target: T1, IKKb (Homo sapiens, UniProt O14920); assay: Kinase profiling IKKb; conditions: for remaining activity at 100 µM: read-out: residual kinase activity, IKKb
T1 sequence (O14920 1-756): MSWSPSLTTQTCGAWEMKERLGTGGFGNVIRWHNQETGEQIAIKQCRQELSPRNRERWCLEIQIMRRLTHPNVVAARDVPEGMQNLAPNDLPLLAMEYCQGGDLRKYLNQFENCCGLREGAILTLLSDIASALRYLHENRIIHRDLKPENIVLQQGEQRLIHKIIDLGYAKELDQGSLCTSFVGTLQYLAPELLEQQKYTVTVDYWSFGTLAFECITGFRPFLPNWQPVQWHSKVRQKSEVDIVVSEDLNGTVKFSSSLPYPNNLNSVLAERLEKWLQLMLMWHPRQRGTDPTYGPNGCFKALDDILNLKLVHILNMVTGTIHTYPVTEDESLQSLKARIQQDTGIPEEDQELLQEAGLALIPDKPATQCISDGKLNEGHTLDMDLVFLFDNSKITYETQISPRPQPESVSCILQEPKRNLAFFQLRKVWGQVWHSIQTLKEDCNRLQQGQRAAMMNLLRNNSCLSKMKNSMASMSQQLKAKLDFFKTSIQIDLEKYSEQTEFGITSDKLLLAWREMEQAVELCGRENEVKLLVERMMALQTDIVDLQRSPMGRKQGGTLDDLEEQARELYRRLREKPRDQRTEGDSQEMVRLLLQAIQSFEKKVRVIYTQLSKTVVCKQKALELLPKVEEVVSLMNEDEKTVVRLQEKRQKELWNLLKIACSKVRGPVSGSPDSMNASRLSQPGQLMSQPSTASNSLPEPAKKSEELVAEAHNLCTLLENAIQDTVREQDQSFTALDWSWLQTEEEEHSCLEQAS
Description: as §1

[4] = biological target: T2, TAO1 (Homo sapiens, UniProt Q7L7X3); assay: Kinase profiling TAO1; conditions: for remaining activity at 100 µM: read-out: residual kinase activity, TAO1
T2 sequence (Q7L7X3 1-1001): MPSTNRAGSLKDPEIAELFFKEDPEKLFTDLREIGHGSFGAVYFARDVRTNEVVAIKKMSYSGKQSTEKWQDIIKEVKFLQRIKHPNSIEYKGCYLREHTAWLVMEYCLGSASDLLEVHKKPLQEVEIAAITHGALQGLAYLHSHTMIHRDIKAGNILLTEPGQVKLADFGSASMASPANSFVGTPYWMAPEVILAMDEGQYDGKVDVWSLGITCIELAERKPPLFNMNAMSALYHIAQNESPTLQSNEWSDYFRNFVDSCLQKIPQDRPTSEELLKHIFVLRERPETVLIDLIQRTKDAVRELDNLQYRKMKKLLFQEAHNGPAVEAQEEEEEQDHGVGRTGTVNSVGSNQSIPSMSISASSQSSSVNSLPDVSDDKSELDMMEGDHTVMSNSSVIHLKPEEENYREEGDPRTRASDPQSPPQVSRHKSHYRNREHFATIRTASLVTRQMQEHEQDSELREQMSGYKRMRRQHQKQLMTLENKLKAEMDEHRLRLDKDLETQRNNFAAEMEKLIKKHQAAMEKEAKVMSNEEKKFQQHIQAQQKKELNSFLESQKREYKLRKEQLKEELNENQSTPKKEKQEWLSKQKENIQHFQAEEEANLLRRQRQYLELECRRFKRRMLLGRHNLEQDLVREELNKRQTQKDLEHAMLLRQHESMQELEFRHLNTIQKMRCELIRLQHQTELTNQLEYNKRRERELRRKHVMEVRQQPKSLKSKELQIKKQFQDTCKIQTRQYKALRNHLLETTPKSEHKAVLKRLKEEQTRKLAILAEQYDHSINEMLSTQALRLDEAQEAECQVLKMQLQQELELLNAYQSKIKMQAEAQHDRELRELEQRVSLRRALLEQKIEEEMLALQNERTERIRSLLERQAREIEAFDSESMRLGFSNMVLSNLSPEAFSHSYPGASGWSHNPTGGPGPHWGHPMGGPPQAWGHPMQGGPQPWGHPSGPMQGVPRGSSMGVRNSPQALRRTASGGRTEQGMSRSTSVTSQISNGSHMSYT
Description: as §1

[5] = biological target: PDGFRA (Homo sapiens, UniProt P16234); assay: Kinase profiling PDGFRA; conditions: for remaining activity at 100 µM: read-out: residual kinase activity, PDGFRA
Description: as §1

[6] = 100 micromolar inhibitor concentration, 100 is no change
[7] = 100 micromolar inhibitor, 100 = no change

TTBK1, sequence (Q5TCY1 whole entry, species assumed): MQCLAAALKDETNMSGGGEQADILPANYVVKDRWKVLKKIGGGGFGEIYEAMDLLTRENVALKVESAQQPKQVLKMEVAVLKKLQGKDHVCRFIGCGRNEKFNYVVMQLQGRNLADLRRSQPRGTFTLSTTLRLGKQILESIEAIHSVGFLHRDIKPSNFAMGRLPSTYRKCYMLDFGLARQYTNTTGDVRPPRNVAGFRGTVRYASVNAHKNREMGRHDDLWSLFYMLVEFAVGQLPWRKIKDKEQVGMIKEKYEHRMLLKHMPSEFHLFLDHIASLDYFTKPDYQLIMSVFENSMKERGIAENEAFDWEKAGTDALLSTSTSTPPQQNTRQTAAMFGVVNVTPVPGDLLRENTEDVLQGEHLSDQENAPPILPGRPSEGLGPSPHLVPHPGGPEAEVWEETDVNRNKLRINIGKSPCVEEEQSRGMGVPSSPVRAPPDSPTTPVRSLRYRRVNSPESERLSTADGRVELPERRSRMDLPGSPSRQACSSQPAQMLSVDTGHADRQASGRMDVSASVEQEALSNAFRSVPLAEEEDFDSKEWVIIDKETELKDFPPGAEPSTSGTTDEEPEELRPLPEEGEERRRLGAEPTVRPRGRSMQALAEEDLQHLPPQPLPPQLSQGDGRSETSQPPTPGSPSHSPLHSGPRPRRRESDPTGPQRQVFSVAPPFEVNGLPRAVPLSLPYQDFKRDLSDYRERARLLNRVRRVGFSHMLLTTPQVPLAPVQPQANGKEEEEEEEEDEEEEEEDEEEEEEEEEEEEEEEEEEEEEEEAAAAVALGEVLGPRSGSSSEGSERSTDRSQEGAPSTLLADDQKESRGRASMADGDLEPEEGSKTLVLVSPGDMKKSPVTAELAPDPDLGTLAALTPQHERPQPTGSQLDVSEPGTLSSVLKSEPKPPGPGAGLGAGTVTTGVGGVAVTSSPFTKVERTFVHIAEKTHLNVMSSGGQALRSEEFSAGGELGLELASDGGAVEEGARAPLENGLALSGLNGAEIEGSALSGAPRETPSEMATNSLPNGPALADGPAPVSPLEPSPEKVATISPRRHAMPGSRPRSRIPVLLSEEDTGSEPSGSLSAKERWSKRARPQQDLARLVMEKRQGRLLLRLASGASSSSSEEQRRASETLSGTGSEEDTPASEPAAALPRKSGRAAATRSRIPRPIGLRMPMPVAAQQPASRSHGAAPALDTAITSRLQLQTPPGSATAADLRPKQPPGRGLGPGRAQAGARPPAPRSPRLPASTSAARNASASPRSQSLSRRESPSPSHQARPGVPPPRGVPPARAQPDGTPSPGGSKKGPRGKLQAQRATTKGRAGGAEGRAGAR
PDGFRA, sequence (P16234 24-1089, species assumed): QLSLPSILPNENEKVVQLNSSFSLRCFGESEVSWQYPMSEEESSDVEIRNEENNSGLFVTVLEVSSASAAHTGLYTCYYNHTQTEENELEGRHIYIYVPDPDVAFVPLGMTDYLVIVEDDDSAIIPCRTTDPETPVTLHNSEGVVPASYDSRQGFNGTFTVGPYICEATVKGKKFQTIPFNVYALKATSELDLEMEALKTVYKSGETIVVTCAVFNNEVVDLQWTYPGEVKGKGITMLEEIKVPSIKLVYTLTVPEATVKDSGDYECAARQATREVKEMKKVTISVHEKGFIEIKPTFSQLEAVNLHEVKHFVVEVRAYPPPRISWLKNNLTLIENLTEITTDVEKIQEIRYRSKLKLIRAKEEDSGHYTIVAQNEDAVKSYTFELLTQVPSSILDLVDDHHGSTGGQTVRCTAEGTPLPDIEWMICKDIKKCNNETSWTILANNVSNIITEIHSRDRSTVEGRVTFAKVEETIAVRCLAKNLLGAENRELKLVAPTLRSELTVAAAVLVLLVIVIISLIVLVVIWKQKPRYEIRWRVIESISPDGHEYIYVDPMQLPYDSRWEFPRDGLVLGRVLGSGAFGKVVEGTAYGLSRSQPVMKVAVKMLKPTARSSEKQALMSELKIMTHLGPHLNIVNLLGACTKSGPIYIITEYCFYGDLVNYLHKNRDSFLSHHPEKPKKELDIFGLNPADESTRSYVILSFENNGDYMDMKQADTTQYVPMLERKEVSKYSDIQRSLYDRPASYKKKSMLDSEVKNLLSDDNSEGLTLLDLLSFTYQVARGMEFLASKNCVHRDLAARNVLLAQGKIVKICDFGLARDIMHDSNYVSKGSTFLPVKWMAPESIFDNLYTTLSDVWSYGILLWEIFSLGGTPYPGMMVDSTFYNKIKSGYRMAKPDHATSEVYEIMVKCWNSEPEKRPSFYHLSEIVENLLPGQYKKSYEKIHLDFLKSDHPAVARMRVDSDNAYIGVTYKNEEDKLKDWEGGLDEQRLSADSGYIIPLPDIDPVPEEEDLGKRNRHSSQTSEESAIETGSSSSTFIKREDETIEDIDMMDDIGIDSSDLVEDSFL
MAPKAP-K2, sequence (P49137 whole entry, species assumed): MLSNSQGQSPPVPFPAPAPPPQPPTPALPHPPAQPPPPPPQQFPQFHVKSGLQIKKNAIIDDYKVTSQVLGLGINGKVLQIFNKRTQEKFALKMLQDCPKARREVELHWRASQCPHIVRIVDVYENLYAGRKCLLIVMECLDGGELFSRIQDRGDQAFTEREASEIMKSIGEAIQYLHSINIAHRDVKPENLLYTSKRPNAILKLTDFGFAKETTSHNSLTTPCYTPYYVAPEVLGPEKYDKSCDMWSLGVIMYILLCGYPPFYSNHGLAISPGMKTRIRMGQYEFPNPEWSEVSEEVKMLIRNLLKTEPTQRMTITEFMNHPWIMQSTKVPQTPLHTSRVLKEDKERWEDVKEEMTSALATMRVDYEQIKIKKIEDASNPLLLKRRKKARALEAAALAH

SMILES | residual kinase activity, MAPKAP-K2 [1, 6] | residual kinase activity, TTBK1 [2, 6] | residual kinase activity, IKKb [3, 6] | residual kinase activity, TAO1 [4, 6] | residual kinase activity, PDGFRA [5, 6] | remaining activity at 100 µM [1, 6] [%] | remaining activity at 100 µM [2, 6] [%] | remaining activity at 100 µM [3, 6] [%] | remaining activity at 100 µM [4, 6] [%] | other results
O=C(Nc1nc2cc(O)ccc2s1)c1ccncc1 [Compound 03-11] | 82 | 99 | 80 | 77 | 63 |  |  |  |  | 
CC(=O)Nc1nc2cc(C)ccc2s1 [Compound 03-76] | 105 | 84 | 59 | 76 | 59 |  |  |  |  | 
CC(=O)Nc1nc2cc(O)ccc2s1 [Compound 01-66, N-(5-hydroxybenzo[d]thiazol-2-yl)acetamide] |  |  |  |  |  |  |  |  |  | remaining activity at 100 µM [1]: 77%; remaining activity at 100 µM [2]: 68%; remaining activity at 100 µM [3]: 62%; remaining activity at 100 µM [4]: 30%
CC(=O)Nc1nc2ccc(C(F)(F)F)cc2s1 [Compound 01-90] |  |  |  |  |  | 90 | 88 | 75 | 71 | remaining activity at 100 µM [5, 6]: 30%
CC(=O)Nc1nc2ccc(O)cc2s1 [Compound 01-71] |  |  |  |  |  | 46 | 61 | 63 | 29 | 
O=C(Nc1nc2ccc(O)cc2s1)c1ccccc1 [Compound 03-60] | 59 | 46 | 87 | 62 | 29 |  |  |  |  | 
CC(=O)Nc1nc2ccc(C#N)cc2s1 [Compound 01-94] |  |  |  |  |  | 65 | 73 | 58 | 46 | remaining activity at 100 µM [5, 6]: 40%
COc1ccc2sc(NC(C)=O)nc2c1 [Compound 03-21] |  |  |  |  |  | 108 | 93 | 98 | 72 | remaining activity at 100 µM [5, 6]: 87%
O=C(Nc1nc2ccc(O)cc2s1)c1ccncc1 [Compound 08-42] | 72 | 70 | 82 | 81 | 40 |  |  |  |  | 
CC(=O)Nc1cccc(NC(=O)c2nc3ccc(O)cc3s2)c1 [Compound 03-07, N-(3-acetamidophenyl)-6-hydroxybenzo[d]thiazole-2-carboxamide] |  |  |  |  |  |  |  |  |  | remaining activity at 100 µM [1, 7]: 51%; remaining activity at 100 µM [2, 7]: 93%; remaining activity at 100 µM [3, 7]: 88%; remaining activity at 100 µM [4, 7]: 84%; remaining activity at 100 µM [5, 7]: 44%
O=C(Nc1nc2cc(O)ccc2s1)c1ccccn1 [Compound 03-13] | 98 | 100 | 88 | 80 | 43 |  |  |  |  | 
O=C(Nc1nc2ccc(O)cc2s1)c1ccccn1 [Compound 03-12] | 43 | 91 | 84 | 74 | 56 |  |  |  |  | 
O=C(Nc1nc2ccc(O)cc2s1)c1cccnc1 [Compound 08-44] | 56 | 47 | 63 | 68 | 44 |  |  |  |  | 
CC(=O)Nc1nc2cc(C(F)(F)F)ccc2s1 [Compound 03-73] |  |  |  |  |  | 114 | 94 | 94 | 88 | remaining activity at 100 µM [5, 6]: 34%
CC(=O)Nc1nc2ccccc2s1 [Compound 03-32] | 102 | 80 | 75 | 73 | 78 |  |  |  |  | 
CC(=O)Nc1nc2cc(F)ccc2s1 [Compound 03-77] |  |  |  |  |  | 106 | 80 | 61 | 69 | remaining activity at 100 µM [5, 6]: 59%
O=C(Nc1nc2cc(O)ccc2s1)c1cccnc1 [Compound 03-33] | 109 | 89 | 81 | 87 | 61 |  |  |  |  | 
